Data reported in patent publication US20140328893A1, “NUTLIN COMPOUNDS FOR USE IN THE TREATMENT OF PULMONARY HYPERTENSION” (Institut National de la Sante et de la Recherche Medicale …, priority 2011, published 2014).

Assays:
p53 pathway [1] = test: p53 pathway activation in cultured human PA-SMCs (Western blotting, RT-qPCR); type: cell-based; conditions: 2.5 to 10 μM
Protocol: (§1) Cultured PA-SMCs were collected from pulmonary arteries of patients undergoing lung surgery for localized lung tumours. To determine the phenotypic characteristics of cultured PA-SMCs, the cells from each culture were assessed for expression of musclespecific contractile and cytoskeletal proteins, including smooth muscle cell α-actin and desmin.
(§2) To assess the effects of nutlin on cell senescence, the percentage of beta-galactosidase (β-gap)-positive cells was measured after 48 hours incubation with nutlin-3 in presence or absence of vehicle or PDGF. The amounts of p53, p16, and p21 proteins or mRNA were determined by western blotting o by RT-qPCR, respectively.
(§3) p53, p16, p21, caspase and MDM2 proteins were detected and measured in lung tissues and/or cells using Western blotting. Levels of p21, Bax, and PUMA mRNA in lung tissues and/or cells were determined using RT-qPCR. Total mRNA was extracted from lung tissues and PA-SMC using RNeasy Mini Kit (Qiagen, ZA Courtaboeuf, France). First-strand cDNA was synthesized in reversed transcribed samples, as follows: 1 μg total RNA isolated from cells or lung tissues, 200 U/μL SuperScrip II RT (Invitrogen, Life Technologies, Cergy-Pontoise, France), 100 ng Random primers and 10 mM mixed dNTP. Quantitative PCR was performed in a 7900HT Real-Time PCR system (Applied Biosystems, ZA Courtaboeuf, France), using SYBR green Mix from Invitrogen.

cultured human PA-SMC [2] = test: PA-SMC proliferation (MTT); type: cell-based; conditions: 2.5-10 μM, 48 hours
Protocol: as §1
To assess the effects of nutlin-3 on PASMC proliferation, cells were exposed to increasing concentration of nutlin-3a (2.5-10 μM) or vehicle in serum-free medium or in presence of PDGF-BB (50 ng/ml). After 48 hours, tetrazolium salt (MTT), (Sigma, Lyon, France) was added to each well (0.2 mg/ml). After 4 hours incubation at 37° C., the culture medium was removed and formazan crystals were solubilized by adding 500 μL of DMSO. Tetrazolium salt reduction to formazan within the cells was quantified by spectrophotometry at 520 nm.

cultured human PA-SMC [3] = test: PA-SMC senescence (beta-galactosidase-positive cells); type: cell-based; conditions: 48 hours incubation
Protocol: as §1, §2

[4] = system: mice exposed to chronic hypoxia; test: Pulmonary hypertension in mice exposed to chronic hypoxia; type: in vivo
Protocol: (§4) Wild-type mice aged 15-20 weeks were randomly allocated to room air or chronic hypoxia. Transgenic animals expressing the human 5-HTT gene in smooth muscle (SM22-5-HTT+ mice) were produced as previously described. All animal care and procedures were in accordance with institutional guidelines.
(§5) Nutlin-3 was administered at the increasing dosages of 6, 12, and 25 mg/Kg/day by intraperitoneal injection. At completion of treatment, lungs were removed and prepared for histological or Western blot analyses.
Mice were exposed to chronic hypoxia (10% O2) in a ventilated chamber (Biospherix, N.Y., USA). The hypoxic environment was established by flushing the chamber with a mixture of room air and nitrogen, and the gas was recirculated. The chamber environment was monitored using an oxygen analyzer. Carbon dioxide was removed by soda lime granules, and excess humidity was prevented by cooling of the recirculation circuit. Normoxic mice were kept in the same room, with the same light-dark cycle.
Mice exposed previously to hypoxia or room air or SM22-5-HTT+ mice were anaesthetized. After incision of the abdomen, a 26-gauge needle connected to a pressure transducer was inserted into the right ventricle through the diaphragm, and right ventricular systolic pressure (RVSP) was recorded immediately. Then, the thorax was opened and the lungs and heart were removed. The right ventricle (RV) was dissected from the left ventricle plus septum (LV+S), and these dissected samples were weighed for determination of Fulton's index (RV/LV+S). The lungs were fixed by intratracheal infusion of 4% aqueous buffered formalin. A midsagittal slice of the right lung was processed for paraffin embedding. Sections 5 μm in thickness were cut and stained with hematoxylin-phloxine-saffron for examination by light microscopy. In each mouse, a total of 20 to 30 intraacinar vessels accompanying either alveolar ducts or alveoli were examined by an observer who was blinded to the treatment or genotype. Each vessel was categorized as nonmuscular (no evidence of vessel wall muscularization), partially muscular (smooth muscle cells [SMCs] identifiable in less than three-fourths of the vessel circumference), or fully muscular (SMCs in more than three-fourths of the vessel circumference). The percentage of pulmonary vessels in each muscularization category was determined by dividing the number of vessels in that category by the total number counted in the relevant group of animals. For fully muscular vessels, video images were obtained and arterial diameters were measured using computerized image-analysis software. Percent wall thickness was then calculated as the diameter of the external elastic lamina minus the diameter of the internal lamina divided by the diameter of the external elastic lamina.

SM22-5-HTT+ mice = test: Pulmonary hypertension in SM22-5-HTT+ mice; type: in vivo; conditions: 12 mg/Kg/day
Protocol: as §4, §5
Mice exposed previously to hypoxia or room air or SM22-5-HTT+ mice were anaesthetized. After incision of the abdomen, a 26-gauge needle connected to a pressure transducer was inserted into the right ventricle through the diaphragm, and right ventricular systolic pressure (RVSP) was recorded immediately. Then, the thorax was opened and the lungs and heart were removed. […] The percentage of pulmonary vessels in each muscularization category was determined by dividing the number of vessels in that category by the total number counted in the relevant group of animals. For fully muscular vessels, video images were obtained and arterial diameters were measured using computerized image-analysis software. Percent wall thickness was then calculated as the diameter of the external elastic lamina minus the diameter of the internal lamina divided by the diameter of the external elastic lamina.

p53 pathway [5] = test: Lung p53 and p21 levels in hypoxic mice (Western blotting, RT-qPCR); type: in vivo
Protocol: as §5, §3

p53 pathway [6] = test: Lung p53 and p21 levels in SM22-5-HTT+ mice (Western blotting, RT-qPCR); type: in vivo
Protocol: as §5, §3

[7] = system: p53-deficient (p53−/−) mice; test: Chronic hypoxia-induced pulmonary hypertension in p53-deficient mice; type: in vivo
Description: Normoxic mice were kept in the same room, with the same light-dark cycle.

[8] = chronic hypoxia mice, 6 to 25 mg/Kg/day intraperitoneally
[9] = mice, associated with protective effects

`COc1ccc(C2=NC(c3ccc(Cl)cc3)C(c3ccc(Cl)cc3)N2C(=O)N2CCNC(=O)C2)c(OC(C)C)c1` (racemic) [Nutlin-3, (±)-4-[4,5-Bis(4-chlorophenyl)-2-(2-isopropoxy-4-methoxy-phenyl)-4,5-dihydro-imidazole-1-carbonyl]-piperazin-2-one] was tested. Which “mRNA level of p53 target gene Bax” value (p53 pathway [1]) did it give?
Its value is “increased”.

And the “mRNA level of p53 target gene PUMA” value (p53 pathway [1])?
Its value is “increased”.

What about the “mRNA level of p53 target gene p21” value (p53 pathway [1]) of the same molecule?
Its value is “increased”.

What about the p53 protein (p53 pathway [1]) of the same molecule?
Its p53 protein is “increased”.

What about the “cell proliferation stimulated by 50 ng/ml PDGF” value (cultured human PA-SMC [2]; 50 ng/ml PDGF) of the same molecule?
The value was “dose-dependent inhibition”.

What about the “cell proliferation stimulated by 0.2% FCS” value (cultured human PA-SMC [2]; 0.2% FCS) of the same molecule?
The value was “dose-dependent inhibition”.

What about the “percentage of beta-galactosidase stained cells (senescent cells)” value (cultured human PA-SMC [3]) of the same molecule?
Its value is “increase”.

What about the “distal pulmonary artery muscularization” value [4, 8] of the same molecule?
The value was “prevented”.

What about the pulmonary hypertension [4, 8] of the same molecule?
The pulmonary hypertension was “prevented”.

What about the right ventricular hypertrophy [4, 8] of the same molecule?
Its right ventricular hypertrophy is “prevented”.

What about the PA-SMC proliferation [4, 9] of the same molecule?
Its PA-SMC proliferation is “decrease”.

What about the apoptosis [4, 9] of the same molecule?
Its apoptosis is “increase”.

And the “PH in SM22-5-HTT+ mice” value (SM22-5-HTT+ mice)?
Its value is “partially reversed”.

What about the “lung p21 mRNA” value (p53 pathway [5]) of the same molecule?
Its value is “marked increases”.

And the “lung p21 protein” value (p53 pathway [5])?
The value was “marked increases”.

And the “lung p53 protein” value (p53 pathway [5])?
Its value is “marked increases”.

What about the “lung p21 mRNA” value (p53 pathway [6]) of the same molecule?
Its value is “marked increases”.

And the “lung p21 protein” value (p53 pathway [6])?
Its value is “marked increases”.

And the “lung p53 protein” value (p53 pathway [6])?
Its value is “marked increases”.

How did the “pulmonary hypertension induced by chronic hypoxia in p53-deficient mice” value [7] turn out when `COc1ccc(C2=N[C@@H](c3ccc(Cl)cc3)[C@@H](c3ccc(Cl)cc3)N2C(=O)N2CCNC(=O)C2)c(OC(C)C)c1` [nutlin-3a] was run?
The value was “remained unaffected”.
